Assay results taken from article PMC7337102 (ACS infectious diseases, 2019).

Molecular target: Eis_wt (Mycobacterium tuberculosis, UniProt P9WFK7)
Assay type: biochemical
Details: KAN as substrate

Eis_wt, sequence (P9WFK7 whole entry): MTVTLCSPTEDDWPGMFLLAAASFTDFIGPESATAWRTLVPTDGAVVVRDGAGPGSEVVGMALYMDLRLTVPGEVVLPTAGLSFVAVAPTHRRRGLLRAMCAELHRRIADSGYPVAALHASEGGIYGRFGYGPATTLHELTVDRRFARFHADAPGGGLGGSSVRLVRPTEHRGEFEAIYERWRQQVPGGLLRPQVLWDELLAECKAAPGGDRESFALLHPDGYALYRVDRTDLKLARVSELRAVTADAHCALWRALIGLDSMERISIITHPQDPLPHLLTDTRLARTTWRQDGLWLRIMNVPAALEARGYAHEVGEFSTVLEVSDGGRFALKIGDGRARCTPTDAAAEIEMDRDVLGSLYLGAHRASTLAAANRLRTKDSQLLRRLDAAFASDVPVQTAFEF

NC[C@H]1O[C@H](O[C@H]2[C@H](O)[C@@H](O[C@H]3O[C@H](CO)[C@@H](O)[C@H](N)[C@H]3O)[C@H](N)C[C@@H]2N)[C@H](O)[C@@H](O)[C@@H]1O [KAN, kanamycin]
kcat: 0.238 ± 0.0317 s⁻¹ | Km (average for three sets of assays): 551 ± 134 µM
